Literature values in patent US20220016054A1, “EPINEPHRINE PARENTERAL FORMULATIONS” (Somerset Therapeutics LLC, priority 2020, published 2022).

How the values were obtained:
[1] = fraction of that of l-epinephrine
[2] = test system: beta-adrenergic receptors

Row | SMILES | pressor effect relative to l-epinephrine [1] | beta-adrenergic activity [2]
1 | CNC[C@H](O)c1ccc(O)c(O)c1 [d-epinephrine] | about one-fifteenth | –
2 | CNCC(=O)c1ccc(O)c(O)c1 [adrenalone] | – | little if any beta-adrenergic activity
